Laboratory results: patent US20190038556A1, “FORMULATIONS AND CARRIER SYSTEMS INCLUDING COMPOUND INTERACTIVE DOMAINS” (University of Pittsburgh - Of The Commonwealth System of …, priority 2012, published 2019)
Converted amounts (≈) assume the structure as drawn. Like-named read-outs stand apart in the source and are kept apart here.

Key:
physchem = assay: physchem
Excerpt: The exact mechanism for the protection of ECGC against oxygen in the form of complex is unknown.

[1] = Screening of protected amino acid derivatives as solubilizers and inhibitor of crystallization for JP4-039; assay type: physicochemical
Protocol: In several studies, we compared a group of ε-Boc-lysine derivatives bearing various modifying groups on the α-NH2 position. […] FIG. 1 illustrates structures of various amino acid derivatives studied in solubility studies of JP4-039 in Table 3. […] In Table 3, the followings designations are used: U—Initially soluble but unstable after 5 min; V—forming vesicles; I—insoluble; and S—soluble.
1(b). Screening of protected amino acid derivatives as solubilizers and inhibitor of crystallization for JP4-039. α-acetyl-ε-Boc-lysine, α-iso-butoxycarbamoyl-ε-Boc-lysine were synthesized from α-NH2-ε-Boc-lysine (1 mmole) dissolved in 5 mL of saturated sodium bicarbonate solution by adding a 4-fold excess of acetyl anhydride or isobutyl chloroformate dissolved in 5 mL of THF over a period of 5 minutes, respectively. THF was removed from the reaction mixture, the remaining mixture was diluted with 50 mL of ethyl acetate. The organic phase was washed with 20 mL of saturated NaHCO3, saline, citric acid (0.5 M) and water sequentially. The organic phase was dried over anhydrous sodium sulfate, and the solvent was removed. The solid residues were recrystallized from ethyl acetate/hexanes mixture. These derivatives, together with a panel of commercially available amine protected derivatives of lysine, phenylalanine, and glycine were prepared as 1-100 mM solution or suspension in 0.1 M Na2HPO4 buffer. Meanwhile, 0.447 μg of JP4-039 dissolved in 5 μL of methanol was added to each well of a 96-well polystyrene plate. One hundred μL of amino acid solution/suspension were added to the methanol solution and mixed well. The physical status of the samples in each well was inspected visually for the physical appearance of brown crystals periodically over 2 h. Some samples were photographed under a microscope after 20 min.

[2] = Particle size measurement by laser dynamic light scattering; assay type: physicochemical; settings: for Size +/− SD: agent formulated with multi-chain PEGylated micelle-forming surfactant; for Particle Sizes w/o JP4-039: empty micelles
Protocol: 1(f). Particle size measurement. […] Samples were further diluted ten times in distilled water and sizes were measured by laser dynamic light scattering using a particle sizer (Zetasizer Nano ZS instrument, available from Malvern Instruments Ltd of Worcestershire, United Kingdom). Size measurement of emulsion particles were conducted using a Coulter N4 particle sizer after a 100-fold dilution in saline.

[3] = for Physical form on hydration: 1 mg at 1 mg/ml
Excerpt: Additional representative studies of paclitaxel PTX loaded onto a carrier agent including only a hydrophilic segment, region or domain conjugated to a drug-interactive segment, region or domain are set forth below.

[4] = Critical micelle concentration (Eosin Y red shift); assay type: physicochemical
Protocol: 1(d). Critical micelle concentration (CMC). CMC was determined based on the red shift of the maximal absorption of Eosin Y when incorporated into more hydrophobic microenvironment in the core of micelle. Eosin Y solution was added to a final concentration of 1 mM to a series of surfactant solution prepared in distilled water and incubated for 30 minute at room temperature. OD542 nm was measured and plotted against surfactant concentration from which CMC values were estimated.

[5] = PTX loading and formulation stability of PTX/PEG-Fmoc2 mixed micelles (HPLC); assay type: physicochemical
Excerpt: DLC (%)=[weight of drug used/(weight of polymer+drug used)]×100%
DLE (%)=(weight of loaded drug/weight of input drug)×100%
2(b)(iv). Preparation and biophysical characterization of PTX/PEG-Fmoc2 mixed micelles. Thin-film hydration method was utilized for preparation of PTX/PEG-Fmoc2 mixed nanomicelles. PEG-Fmoc2 and PTX in chloroform were well mixed in a glass tube at designated molar ratios. A thin film of carrier/drug mixture was generated through removal of the organic solvent by a gentle stream of nitrogen. The trace amount of solvent was further removed via vacuum for 2 h. Then the film was hydrated and suspended in DPBS by vortex to obtain a clear solution of PTX/PEG-Fmoc2 mixed nanomicelles. […]
The size distribution of PTX/PEG-Fmoc2 mixed nanomicelles was examined by dynamic light scattering (DLS) via a Malvern Zeta Nanosizer, and the morphology was observed by transmission electron microscopy (TEM) after negative staining. The CMC measurement was performed as reported before with pyrene as a fluorescence probe. To quantify PTX in the micelles, PTX was extracted by methanol, and detected by Waters Alliance 2695-2998 high-performance liquid chromatography (HPLC) system with a RP-18 column (250 mm×4.6 mm) equipped with a UV detector at 227 nm at room temperature. […] The drug loading capacity (DLC) and efficiency (DLE) were calculated as set forth above.

[6] = aqueous with cosolvent or surfactant or cyclodextrin
[7] = carrier Methoxy-PEG550-α-Fmoc-lysyl-ε-oleylamide (20 mg/ml)

Solubility status of JP4-039 with amino acid derivative ([1]; molar ratio 5) | Solubility status of JP4-039 with amino acid derivative ([1]; molar ratio 10) | Solubility status of JP4-039 with amino acid derivative ([1]; molar ratio 20) | Solubility status of JP4-039 with amino acid derivative ([1]; molar ratio 30) | Solubility status of JP4-039 with amino acid derivative ([1]; molar ratio 40) | Solubility status of JP4-039 with amino acid derivative ([1]; molar ratio 50) | Compound | further results
– | – | – | – | – | – | C=CC1=C(C)c2cc3[nH]c(cc4nc(cc5[nH]c(cc1n2)c(C)c5CCC(=O)O)C(CCC(=O)O)=C4C)c(C)c3C=C [protoporphyrin IX] | Drug:carrier mole ratio (physchem): 1:6 to 1:10; solubility (physchem): ~1 µg/mL (≈ 1.78 µM); solubility (physchem; [6]): 500 µg/mL (≈ 889 µM)
I | I | I | I | S | S | CC(C)(C)OC(=O)NCCCC[C@H](NC(=O)OCc1ccccc1)C(=O)O [Cbz-(tBoc)-Lys-OH] | –
I | I | I | I | I | S | CC(C)(C)OC(=O)N[C@@H](CCCCNC(=O)OCc1ccccc1)C(=O)O [tBoc-(Cbz)-Lys-OH] | –
I | I | I | I | I | S | CC(=O)N[C@@H](CCCCNC(=O)OCc1ccccc1)C(=O)O [Ace-(Cbz)-Lys-OH] | –
– | – | – | – | – | – | COc1ccc2c(c1)c(CC(=O)O)c(C)n2C(=O)c1ccc(Cl)cc1 [Indomethacin] | Physical form on hydration [3, 7]: micelle solution
I | S | S | S | S | S | Isb-(Cbz)-Lys-OH | –
I | – | – | – | – | S | O=C(N[C@@H](Cc1ccccc1)C(=O)O)c1ccccc1 [Benz-Phe-OH] | –
– | – | – | – | – | – | CC/C(=C(\c1ccccc1)c1ccc(OCCN(C)C)cc1)c1ccccc1 [Tamoxifen] | Stability of suspension upon hydration [3]: ~1 h; Physical form on hydration [3, 7]: micelle solution
– | – | – | – | – | – | CC(C)c1onc(-c2c(Cl)cccc2Cl)c1COc1ccc(/C=C/c2cccc(C(=O)O)c2)c(Cl)c1 [GW4064] | Drug:carrier mole ratio (physchem): 2:1 to 1:1; Soluble at (physchem): >5 mg/mL; solubility (physchem): 0.002 µg/mL (≈ 0.00368 µM); Size +/− SD [2]: 35.4 +/− 12 nm
– | – | – | – | – | – | C=CC[C@@H]1/C=C(\C)C[C@H](C)C[C@H](OC)[C@H]2O[C@@](O)(C(=O)C(=O)N3CCCC[C@H]3C(=O)O[C@H](/C(C)=C/[C@@H]3CC[C@@H](O)[C@H](OC)C3)[C@H](C)[C@@H](O)CC1=O)[C@H](C)C[C@@H]2OC [FK506, tacrolimus] | Drug:carrier mole ratio (physchem): 1:1 to 1:1.5; solubility (physchem; [6]): 2500 µg/mL (≈ 3110 µM); Size +/− SD [2]: 62.3 +/− 9 nm
I | I | I | I | I | S | CC(=O)NCCCC[C@H](NC(=O)OCc1ccccc1)C(=O)O [CBz-(Ace)-Lys-OH] | –
– | – | – | – | – | – | Monomethoxy PEG2,000-α-Fmoc-ε-Oleoyl Lysine [lipopeptide 1] | CMC [4]: 5.0 µM
– | – | – | – | – | – | Monomethoxy PEG2,000-lysyl-(α-Fmoc-ε-oleoyl lysine)2 [lipopeptide 3] | Particle Sizes w/JP4-039 ([2]; JP4-039 loaded micelles): 94.2 +/− 1.7 nm; Particle Sizes w/o JP4-039 [2]: 106.7 +/− 2.5 nm; CMC [4]: 4.2 µM
– | – | – | – | – | – | COc1cc(/C=C/C(=O)CC(=O)/C=C/c2ccc(O)c(OC)c2)ccc1O [Curcumin] | Stability of suspension upon hydration [3]: ~1 h; Physical form on hydration [3, 7]: micelle solution; Physical form on hydration ([3]; carrier Methoxy-PEG1000-α-Fmoc-lysyl-ε-(α-Fmoc-ε-Boc lysine), 20 mg/ml): 1 mg at 1 mg/ml, viscous gel; Physical form on hydration ([3]; carrier Methoxy-PEG1000-α-Fmoc-lysyl-ε-(α-Fmoc-ε-Boc lysine), 20 mg/ml, listed as curcumin): suspension
I | I | S | S | S | S | O=C(NCCCC[C@H](NC(=O)OCc1ccccc1)C(=O)O)OCc1ccccc1 [Di-(Cbz)-Lys-OH] | –
– | – | – | – | – | – | PEG5000-lysyl-(α-Fmoc-ε-oleic acid-lysine)2 [PEG-Fmoc-OA] | Stability in solution at maximum PTX loading [5]: several hours; PTX loading capacity (maximum) ([5]; w/w, stable complexes in aqueous solution): 15%
– | – | – | – | – | – | O=C([O-])c1c(Cl)c(Cl)c(Cl)c(Cl)c1-c1c2cc(I)c(=O)c(I)c-2oc2c(I)c([O-])c(I)cc12.[Na+].[Na+] [Rose Bengal] | Drug:carrier mole ratio (physchem): 2.5:1 to 2:1^; Soluble at (physchem): >5 mg/mL; solubility (physchem): freely; Size +/− SD [2]: 101.6 +/− 7 nm
I | I | I | I | I | I | O=C(O)CCNC(=O)OCc1ccccc1 [Cbz-β-Ala-OH] | –
– | – | – | – | – | – | Monomethoxy PEG5,000-lysyl-[lysyl-(α-Fmoc-ε-oleoyl lysine)2]2 [lipopeptide 4] | Particle Sizes w/o JP4-039 [2]: 132.1 +/− 8.5 nm; CMC [4]: 3.4 µM

Compound | Solubility status of JP4-039 with amino acid derivative ([1]; molar ratio 5) | Solubility status of JP4-039 with amino acid derivative ([1]; molar ratio 10) | Solubility status of JP4-039 with amino acid derivative ([1]; molar ratio 20) | Solubility status of JP4-039 with amino acid derivative ([1]; molar ratio 30) | Solubility status of JP4-039 with amino acid derivative ([1]; molar ratio 40) | Solubility status of JP4-039 with amino acid derivative ([1]; molar ratio 50) | further results
CC(C)(C)OC(=O)NCCCC[C@H](NC(=O)OCC1c2ccccc2-c2ccccc21)C(=O)O [Fmoc-(tBoc)-Lys-OH, α-Fmoc-ε-tBoc-lysine] | S | S | S | S | S | S | Measured diameters of the majority of particles ([2]; prepared in 0.1 M KHCO3): 2-5 nm
